US11884710B2, “Peptide compounds and methods of use in wound healing” (priority 2013, dated 2024)

B1: CAP37: cationic antimicrobial protein of Mr 37 kDa; recombinant CAP37 produced in human embryonic kidney (HEK) 293 cells (protein)
chain: IVGGRKARPRQFPFLASIQNQGRHFCGGALIHARFVMTAASCFQSQNPGVSTVVLGAYDLRRRERQSRQTFSISSMSENGYDPQQNLNDLMLLQLDREANLTSSVTILPLPLQNATVEAGTRCQVAGWGSQRSGGRLSRFPRFVNVTVTPEDQCRPNNVCTGVLTRRGGICNGDGGTPLVCEGLAHGVASFSLGPCGRGPDFFTRVALFRDWIDGVLNNPGP

Columns and labels:
[1] = system: cytokines in corneal lysates; experiment: Corneal cytokines after intrastromal injection (MILLIPLEX MAP mouse cytokine assay); format: in vivo; details: intrastromal 0.5 μl, 10^−4, 10^−5, 10^−6 M; 24 and 48 hours
Method: Corneas were injected intrastromally with 0.5 μl of peptide 95-122 at a final concentration of 10^−4 M, 10^−5 M, and 10^−6 M and vehicle (saline) control. Corneas were collected and flash frozen at 24 hours and 48 hours. Corneal lysates were analyzed for cytokines using the MILLIPLEX® MAP mouse cytokine assay for IL-7(A), IL-15 (B), IFN-γ (C), MIP1-α (D) (EMD Millipore Corp., Billerica, Mass.). The means of independent experimental values are shown±SEM. ***P<0.001, **P<0.01, *P<0.05 by unpaired t-test as compared to vehicle treated controls. […] Corneas were injected intrastromally with 0.5 μl of peptide 95-122 at a final concentration of 10^−4 M, 10^−5 M, and 10^−6 M and vehicle (saline) control. Corneas were collected and flash frozen at 24 hours and 48 hours. Corneal lysates were analyzed for cytokines using the MILLIPLEX® MAP mouse cytokine assay for MIP1-β (EMD Millipore Corp., Billerica, Mass.). **P<0.01, *P<0.05 by unpaired t-test as compared to vehicle treated controls. […] Corneas were injected intrastromally with 0.5 μl of peptide 95-122 at a final concentration of 10^−4 M, 10^−5 M, and 10^−6 M and vehicle (saline) control. Corneas were collected and flash frozen at 24 hours and 48 hours. Corneal lysates were analyzed for cytokines using the MILLIPLEX® MAP mouse cytokine assay for KC (A), IL-1β (B), and GM-CSF (C) (EMD Millipore Corp., Billerica, Mass.). **P<0.01, *P<0.05 by unpaired t-test as compared to vehicle treated controls.

PKCδ = experiment: Immunofluorescence for PKCδ in HCEC monolayers; format: cell-based, human; details: CAP37 250 and 500 ng/ml; 15 minutes; scratched and non-scratched monolayers
Method: (§1) HCEC monolayers were grown to confluency and were scratched with a 10 μl pipette tip or left unscratched, and then the monolayers were treated for 15 minutes with (A-B) buffer, (C-D) PMA (1 μM), (E-F) 250 ng/ml CAP37, and (G-J) 500 ng/ml CAP37. Cells were stained for PKCδ (250 ng/ml; (A-H)), and PKCα (1 μg/ml; (I-J)) and detected using immunofluorescence (4 μg/ml, ALEXA FLUOR® 488 dye (Life Technologies Corp., Grand Island, N.Y.)). […] Scratched monolayers that were treated for 18 hours with CAP37 (250 ng/ml; (L)) or left untreated (K) were stained for PKCδ. […] Scale bars, 20 μm.
(§2) Immunofluorescence: HCECs and primary HCECs were cultured on Lab-Tek® II glass chamber slides (Nunc, Rochester, N.Y.) and starved overnight in basal media. For wounding studies, monolayers were scratched with a 10 μl pipette tip or left unscratched and treated with 1 μM phorbol 12-myristate 13-acetate (PMA, Sigma-Aldrich), rCAP37 (25-500 ng/ml), or basal KSFM (Gibco) for 15 minutes. After treatment, the cells were fixed in 4% (v/v) formaldehyde solution (Thermo, Rockford, Ill.) in PBS (Gibco) for 20 minutes at room temperature followed by permeabilization in 0.5% TRITON™-X 100 (Mallinckrodt, St. Louis, Mo.) in PBS for 10 minutes. Remaining formaldehyde was quenched with 0.05 M ammonium chloride (NH4Cl, Sigma-Aldrich, St. Louis, Mo.) in PBS for 10 minutes. […]

PKCα = experiment: Immunofluorescence for PKCα in HCEC monolayers; format: cell-based, human; details: CAP37 500 ng/ml; 15 minutes
Method: as §1, §2

Molecule | GM-CSF in corneal lysates [1] | IFN-γ in corneal lysates [1] | IL-7 in corneal lysates [1] | IL-10 in corneal lysates [1] | IL-15 in corneal lysates [1] | KC in corneal lysates [1] | MIP1-α in corneal lysates [1] | MIP1-β in corneal lysates [1] | PKCδ staining, in words (PKCδ) | PKCα staining, in words (PKCα)
LDREANLTSSVTILPLPLQNATVEAGTR (listed as Homo sapiens) [Peptide 95-122] | significantly increases | significantly increases | significantly increases | significantly increases | significantly increases | significantly increases | significantly increases | significantly increases |  | 
B1 |  |  |  |  |  |  |  |  | dose-dependent increase in PKCδ staining | no increase in PKCα staining
